Reference: patent US11066399B2, “Ferroportin inhibitors” (Vifor (International) AG, priority 2015, dated 2021)
Marks after values point to notes of the source that are not given here.

What was measured:
[1] = test system: Hbb th3/+ mice; experiment: Improvement of anemia, ineffective erythropoiesis and iron overload in a mouse model of β-thalassemia intermedia; type: in vivo; conditions: hemoglobin difference to vehicle
[2] = test system: b2m−/− mice; experiment: Correction of hyperferremia in beta2-microglobulin deficient mice; type: in vivo, mouse; conditions: male b2m−/− mice, Dose 20 mg/kg oral, blood collected 1 (#) hour after dosing
Experimental: Female and male homozygous b2m−/− mice were supplied from Jackson Laboratories (B6.129P2-B2mtm1Unc/J, Stock Number: 002087) at age of 6 to 7 weeks and fed standard diet (Harlan Provimi Kliba 3436) ad libitum. Age and gender matched WT C57BL/6 mice are supplied by Charles River. To study the acute effects of ferroportin (Fpn) inhibitors in iron overload b2m−/− mice were treated with compounds or the corresponding amount of vehicle at a volume of 10 ml/kg body weight. Fpn inhibitor compounds were formulated in 0.5% methylcellulose/water or 20% cremophor EL/water and dosed p.o. in mice at 50 mg/kg body weight. WT controls received only vehicle. Three hours later, mice were pre-terminally anesthetized in isoflurane chambers and blood was collected by retro-orbital bleeding. Mice were sacrificed by cervical dislocation and spleens, livers and duodena were harvested and used for biomarker analysis. All experiments have been performed in compliance with license approved by the responsible veterinarian authorities. Serum was isolated by centrifugation of blood into gel-containing microtainers (BD Biosciences) and serum iron was determined by the MULTIGENT Iron assay (Abbott Diagnostics, Cat. 6K95). Four to nine mice per group were used and one-way ANOVA with Bonferroni's multiple comparison test was applied to analyze the statistical differences between the experimental groups.
Blood was collected 1 (#) or 3 (##) hours after oral administration of the indicated doses of Fpn inhibitors to beta2-microglobulin deficient mice and serum iron concentrations were measured. Relative reduction (%) of serum iron levels are shown, which were calculated by subtracting the average of serum iron values of animals dosed with the Fpn inhibitor from that of vehicle-treated animals. The difference in average serum iron values between vehicle and compound treated groups was then divided by the average of serum iron of the vehicle control group and listed as percentage.

[3] = test system: Hbb th3/+ mice; experiment: Improvement of anemia, ineffective erythropoiesis and iron overload in a mouse model of β-thalassemia intermedia; type: in vivo; conditions: % change to vehicle; for Decrease in serum iron: dosed for 3 h
Experimental: The efficacy of Fpn inhibitors was investigated using a mouse model of transfusion-independent β-thalassemia. Mice with heterozygous deletion of β1 and β2 globin genes (called Hbb th3/+ mice) develop transfusion-independent anemia, ineffective erythropoiesis, splenomegaly and secondary iron overload in spleen, liver and kidneys. […] Hbb th3/+ mice were dosed twice daily with either compound at 20 or 60 mg/kg or with methylcellulose (10 ml/kg, Sigma, Cat. 274429) as a vehicle. Between both doses mice had access to drinking water supplemented with 1 mM ^58Fe(II)-sulfate (Vifor Pharma, Batch No. ROR 3096) and 10 mM ascorbic acid (Sigma, Cat. 795437) for 6 h. […] Water without ^58Fe(II)-Sulfate and ascorbic acid was provided during the remaining 18 h. Dosing of Fpn inhibitors or vehicle followed by exposure to iron-containing water was repeated for 20 to 46 days in individual experiments.
Additional hematologic parameters were measured in terminal blood using automated blood cell analyzer.
The inefficient erythropoiesis of Hbb th3/+ mice causes excessive proliferation of erythroid precursors in spleen, leading to splenomegaly.
Erythroferrone is produced by erythrocyte precursors proliferating massively in spleens of Hbb th3/+ mice as a consequence of extramedullar erythropoiesis.
Increased iron demand due to inefficient erythropoiesis and chronically low hepcidin levels in patients with thalassemia causes organ iron loading and associated morbidities, such as hepatocellular carcinoma and heart failure (Rivella S. Haematologica, 2015). Hbb th3/+ mice absorb excessive amounts of iron as a consequence of inadequately low hepcidin levels relative to the high iron content in liver, spleen and kidney and increased ferroportin expression in duodenum (Gardenghi S., Blood, 2007).
Additionally, reactive oxygen species (ROS) were detected in bone marrow cells using a fluorescent indicator, CM-H2DCFDA (Thermo Fisher Scientific, Cat. C6827).
Table 10. Efficacy of Ferroportin inhibitors in a mouse model of thalassemia intermedia (Hbb th3/+ mice). […] Data are expressed as difference to the vehicle control group for hemoglobin and as % change to the vehicle control group for all other parameter shown

[4] = test system: anemic Wistar rats; experiment: Prevention of iron absorption in anemic rats; type: in vivo, rat; conditions: 1 h before 0.5 mg/kg ferrous sulfate
Experimental: To assess the in vivo efficacy of ferroportin (Fpn) inhibitors to block iron absorption, a series of Fpn inhibitors were tested in an anemic rat model for iron absorption. Wistar rats (3-4 weeks old, n=5, Janvier Labs) were fed a low iron diet (Provimi-Kliba, Cat. 2039) until their hemoglobin (Hb) values reach 7-8 g/dl one day before dosing of the Fpn inhibitor compounds. One hour before oral application of 0.5 mg/kg of ferrous sulfate, test compounds formulated in methyl cellulose or Cremophor were dosed orally. Blood samples were taken by tail vein puncture one hour before administration of iron (−1 h), immediately after dosing of the Fpn inhibitors (0 h) and one hour (1 h), three hours (3 h) and occasionally up to 6 hours (6 h) after dosing of the test compounds. Serum iron levels were measured (Abbott Diagnostics, Cat. 6K95) and inhibition of the rise of serum iron three hours after dosing of the test compound was calculated as a measure for efficacy of the Fpn inhibitors in blocking iron absorption (Table 7).

[5] = test system: naïve WT C57BL/6 mice; experiment: Hypoferremia in naïve mice; type: in vivo, mouse; conditions: Mus musculus, po, 3 h, read-out: Serum Iron Reduction at 3 h (%)
Experimental: Female C57BL/6 mice (Janvier, France) at age of 9 weeks were fed a standard diet (Harlan Provimi Kliba 3436) and treated per os (p.o.) with compounds or the corresponding amount of vehicle at a volume of 10 ml/kg body weight. Fpn inhibitors were formulated in 0.5% methylcellulose/water or 20% cremophor EL/water and dosed p.o. in mice at 10, 30 or 100 mg/kg body weight. Three hours later, mice were pre-terminally anesthetized in isoflurane chambers and blood was collected by retro-orbital bleeding. Mice were sacrificed by cervical dislocation and spleens, livers and duodena were harvested and used for biomarker analysis. All experiments have been conducted in compliance with the license approved by the responsible veterinarian authorities. Serum was isolated by centrifugation of blood into gel-containing microtainers and serum iron was determined by the MULTIGENT Iron assay (Abbott Diagnostics, 6K95). Eight mice per group were used and one-way ANOVA with Bonferroni's multiple comparison test was performed to analyze the statistical differences between the experimental groups.
Relative serum iron reduction at 3 h after dosing was calculated by subtracting the average of serum iron values of animals dosed with the Fpn inhibitor from that of vehicle-treated animals. The difference in average serum iron values between vehicle and compound treated groups was then divided by the average of serum iron of the vehicle control group and listed as percentage.

SMILES: O=C(NCc1ncccc1F)c1cnc(C2CN(CCc3nc4ccccc4[nH]3)C2)o1 [Example 2]
- Correction of anemia at day 20-48 ([1]; 20 mg/kg twice daily): 3 g/L
- Correction of anemia at day 20-48 ([1]; 60 mg/kg twice daily): 11 g/L

SMILES: O=C(NCc1ncccc1F)c1csc(CCNCc2nc3ccccc3[nH]2)n1 [Example 40]
- Serum Iron Reduction (%) [2]: 35** %
- Decrease in serum erythropoietin ([3]; 20 mg/kg twice daily for 20-46 days): 6%
- Decrease in serum iron ([3]; 20 mg/kg): 28%
- Decrease in serum iron ([3]; 60 mg/kg): 58%

SMILES: O=C(NCc1ncccc1F)c1cnc(CCNCCc2nc3ccccc3[nH]2)o1 [Example 1]
- Serum Iron Inhibition (%) at 3 h ([4]; Dose 10 mg/kg oral): 42.6** %
- Serum Iron Inhibition (%) at 3 h ([4]; Dose 30 mg/kg oral): 64.9*** %

SMILES: O=C(NCc1ncccc1F)c1cnn(CCNCCc2cc3ccccc3[nH]2)c1 [Example 277]
- inhibition in vivo at 10 mg/kg [5]: 6%
- inhibition in vivo at 30 mg/kg [5]: 21%
- inhibition in vivo at 100 mg/kg [5]: 54%
